According to PMC9396645 (Frontiers in Chemistry, 2022):

Key:
[1] = tested on: C4-2 cells; test: Internalization efficiency / specific cell uptake in C4-2 cells; format: cell-based, human; settings: for Specific cell surface / Specific lysate (internalization): ^68Ga-labeled compounds 30 nM, 45 min, 37°C, specificity by 2-PMPA 500 μM, mean ± SD (n = 3)
Description: The specific internalization ratio was determinated in 24-well plates. The plates were previously coated with 0.1% poly-L-lysine in PBS for 20 min and washed with PBS once. C4-2 cells (10^5 cells per analysis) were added to each well and equilibrated overnight. The cells were incubated for 45 min with 250 µL of a 30 nM solution of the ^68Ga-labeled compounds either in a water bath at 37°C or on ice. The PSMA-receptor-blocking agent 2-(phosphonomethyl)pentanedioic acid (2-PMPA; 500 μM; Axxora) was used to verify the specificity of the cellular uptake of the novel compounds. The cells were washed thrice (using 1 ml of ice-cold PBS), followed by an incubation with 0.5 ml of a glycine solution (50 mM in HCl at a pH of 2.8) for 5 min, washed once with 1 ml of ice-cold PBS, and finally lysed with 0.5 ml of 0.3 M NaOH. The lysate was collected, and the radioactivity was measured in a gamma-counter. Triplicate measurements were performed for all experiments.

[2] = biological target: T1, PSMA (Homo sapiens, UniProt Q04609); test: Competitive cell binding assay on C4-2 cells vs ^68Ga-PSMA-10; settings: non-labeled compounds, radioligand ^68Ga-PSMA-10 0.75 nM, 37°C 45 min, mean ± SD (n = 3)
T1 construct: host or cells: C4-2 cells (subline of LNCaP)
Description: The competition binding assay was performed using the cell line C4-2 (ATCC® CRL-3314™; American Type Culture Collection). This is a subline of the PSMA-positive cell line LNCaP. The cells were cultivated in RPMI 1640 medium (PAN-Biotech), supplemented with 10% fetal bovine serum and 2 mM L-glutamine (PAN-Biotech) at 37°C and 5% CO2 in a humidified atmosphere.
A 96-well MultiScreenHTS-DV filter plate (Merck Millipore) was incubated at room temperature with 100 µL of a 1% bovine serum albumin (BSA) solution in PBS (phosphate-buffered saline) per well for 30 min. After removal of PBS/BSA solution, 1 × 10^5 C4-2 cells in 50 µL of Opti-MEM medium (Gibco, Life Technologies) were seeded into each well. […] All non-labeled compounds were dissolved in Opti-MEM and added as competing ligands at several concentrations: 0, 0.5, 1, 2.5, 5, 10, 25, 50, 100, 500, 1,000, and 5,000 nM. After incubation at 37°C for 45 min, the cells were washed twice with PBS at 4°C. The radioactivity in the supernatant and that accumulated by the cells was determined with a γ-counter (Packard Cobra Auto-gamma). Using Graph Pad Prism 5.01 software, a nonlinear regression algorithm was calculated to obtain the 50% inhibitory concentration (IC50). These experiments were performed in quadruplicate.

[3] = Serum stability (radio-HPLC and radio-ITLC); format: in vitro ADME; settings: ^177Lu-labeled; for release of ^177Lu in human serum: radio-ITLC
Description: After radiolabeling of the compounds, serum stability was examined by HPLC and ITLC (instant thin-layer chromatography). 50 µL (20 MBq) of the ^177Lu-labeled ligands was added to 200 µL human serum (Sigma-Aldrich) and incubated at 37°C. At different time points (0, 2, 24, 48, and 72 h) 0.5 µL was applied onto iTLC-SG-glass microfiber chromatography paper strips (5 × 0.5 cm; Agilent Technologies) at a distance of 1 cm from the bottom. The strip was placed upright into a vial containing 120 µL of sodium citrate buffer (0.5 M, pH = 5.0). The buffer front was allowed to rise to the top. Subsequently, each strip was cut in eight equally sized pieces that were subsequently measured in a gamma-counter. For HPLC analysis, an equal volume of ACN was added to the samples; under these conditions, the serum proteins precipitated. The samples were centrifuged for 10 min at 12,000 × g. Following the separation of the pellet and the supernatant, their relative activity (%) was determined. An aliquot of the supernatant was analyzed by radio-HPLC (0–100% ACN in 5 min, Monolith column, Merck), with a flow rate of 2 mL/min.

[4] = tested on: C4-2 tumor-bearing mice; test: In vivo metabolite analysis by radio-HPLC of tissue extracts; parameters: species or system mouse; settings: extracts from kidney, blood, liver and tumor of C4-2 tumor-bearing mice, 10 MBq, 0.2 nmol i.v.
Description: The metabolization of the radiolabeled tracers in vivo was studied by radio-HPLC analysis. Male nude C4-2 tumor-bearing mice (n = 3) were injected with ^177Lu-CA028 or ^177Lu-PSMA-617 (10 MBq, 0.2 nmol in approximately 100 µL of 0.9% saline) via the tail vein. Ten min post injection, blood, the liver, and the kidneys were dissected. The tissues were rinsed with ice-cold saline, blotted dry, treated with 2 mL of 0.1 M NH4OAc/EtOH (35:65), and homogenized with an Ultra-Turrax T8 (IKA Labortechnik). The samples were then centrifuged for 10 min at 12,000 × g and 4°C. For HPLC measurements, an aliquot of the supernatants was prepared by precipitation of the proteins with ACN as described above for serum stability testing. The samples were analyzed by radio-HPLC (0–100% ACN in 5 min, 2 mL/min, Monolith column, Merck). The fractions were collected every 10 s over the whole course of the chromatographic run. Subsequently, the activity of the samples was measured in a gamma-counter to reconstruct a chromatogram.

[5] = Determination of plasma half-life in athymic nude mice; format: in vivo, mouse; settings: athymic nude mice (n = 3), i.v. 4–6 MBq, biexponential fit, weighted overall half-life
Description: The radioligands ^68Ga-CA027 and ^68Ga-CA028 (4–6 MBq) were injected into athymic nude mice (n = 3) via the lateral tail vein. Blood (25–50 μL) was collected 2, 5, 15, 30, 45, 60, 90, and 120 min post injection via either the tail or saphenous vein, and the activity of the blood samples was determined in a γ-counter. Both procedures furnished consistent and reproducible results. The percentage of the injected dose per gram of tissue (%ID/g) was calculated, and the resulting values were plotted as a function of time. A biexponential decay curve was used as a fit function, accounting for a short blood half-life (a-phase) during the initial phase directly after injection and a longer blood half-life during the terminal phase (b-phase). The data analysis program Prism 7™ was used to determine both half-lives, t1/2-a and t1/2-b, as well as their relative contribution (in %) to the overall half-life (t1/2). Subsequently, both half-lives were weighed according to their relative contribution to the overall blood half-life t1/2. At the time of tracer injection (t = 0), it was assumed that %ID/g = 50. The injected dose at t = 0 equals 100%, divided by the total mass of blood (approximately 2 g in the case of 6‒8 weeks old mice) gives %ID/g t=0 = 50.

T1 sequence (Q04609 whole entry): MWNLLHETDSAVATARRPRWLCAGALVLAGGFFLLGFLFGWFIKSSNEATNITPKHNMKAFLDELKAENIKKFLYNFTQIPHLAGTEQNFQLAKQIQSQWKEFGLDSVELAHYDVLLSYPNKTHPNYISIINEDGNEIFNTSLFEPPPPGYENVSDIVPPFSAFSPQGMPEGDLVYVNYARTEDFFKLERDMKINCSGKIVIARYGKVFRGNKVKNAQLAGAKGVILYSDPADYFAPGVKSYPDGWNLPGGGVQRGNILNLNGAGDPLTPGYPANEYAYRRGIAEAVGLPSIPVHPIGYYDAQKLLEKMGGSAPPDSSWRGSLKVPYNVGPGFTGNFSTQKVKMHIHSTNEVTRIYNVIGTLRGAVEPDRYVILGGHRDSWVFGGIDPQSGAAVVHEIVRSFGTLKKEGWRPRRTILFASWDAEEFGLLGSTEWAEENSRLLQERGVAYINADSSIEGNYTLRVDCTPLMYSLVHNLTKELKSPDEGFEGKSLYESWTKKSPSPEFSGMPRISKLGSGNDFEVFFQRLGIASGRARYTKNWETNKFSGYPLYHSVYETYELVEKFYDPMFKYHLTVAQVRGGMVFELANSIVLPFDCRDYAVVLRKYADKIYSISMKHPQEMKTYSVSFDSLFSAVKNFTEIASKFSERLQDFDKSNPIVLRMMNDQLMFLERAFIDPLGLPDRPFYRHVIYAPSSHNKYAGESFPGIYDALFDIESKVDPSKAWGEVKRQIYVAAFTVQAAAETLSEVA

Row | Structure (SMILES) | Specific cell surface [1] | Specific lysate (internalization) [1] | Ki [2] | release of ^177Lu in human serum ([3]; 37°C) | also measured
1 | O=C(O)CCC(NC(=O)NC(CCCCNC(=O)C(Cc1ccc2ccccc2c1)NC(=O)C1CCC(CNC(=S)Nc2ccc(CNC(=O)CCC(C(=O)O)N3CCN(CC(=O)O)CCN(CC(=O)O)CCN(CC(=O)O)CC3)cc2)CC1)C(=O)O)C(=O)O (stereo not drawn) [CA029] | 46.83 ± 3.07 %IA/10^6cells | 44.26 ± 3.96 %IA/10^6 cells | 11 ± 4.87 nM | – | –
2 | O=C(O)CCC(NC(=O)NC(CCCCNC(=O)C(Cc1ccc2ccccc2c1)NC(=O)C1CCC(CNC(=S)Nc2ccc(CC3CN(CC(=O)O)CCN(CC(=O)O)CCN(CC(=O)O)CCN3CC(=O)O)cc2)CC1)C(=O)O)C(=O)O (stereo not drawn) [CA030] | 43.46 ± 1.50 %IA/10^6cells | 53.78 ± 5.45 %IA/10^6 cells | 4.79 ± 1.31 nM | – | specific internalization in C4-2 cells ([1]; Table 2): 53.78 % ID/10^6 cells
3 | O=C([O-])CN1CCN(CC(=O)[O-])CCN(C(CCC(=O)NCc2ccc(NC(=S)NCC3CCC(C(=O)NC(Cc4ccc5ccccc5c4)C(=O)NCCCCC(NC(=O)NC(CCC(=O)O)C(=O)O)C(=O)O)CC3)cc2)C(=O)O)CCN(CC(=O)[O-])CC1.[177Lu+3] (stereo not drawn) [^177Lu-CA029] | – | – | – | no release | –
4 | O=C([O-])CN1CCN(CC(=O)[O-])CCN(CC(=O)NCC2CCC(C(=O)N[C@@H](Cc3ccc4ccccc4c3)C(=O)NCCCC[C@H](NC(=O)N[C@@H](CCC(=O)O)C(=O)O)C(=O)O)CC2)CCN(CC(=O)[O-])CC1.[177Lu+3] (stereo partly drawn) [^177Lu-PSMA-617, reference compound] | – | – | – | no release | metabolization in vivo (radio-HPLC of extracts) [4]: activity elutes at the retention time of the intact tracer
5 | O=C([O-])CN1CCN(CC(=O)[O-])CCN(Cc2ccc(C(=O)NCC3CCC(C(=O)NC(Cc4ccc5ccccc5c4)C(=O)NCCCCC(NC(=O)NC(CCC(=O)O)C(=O)O)C(=O)O)CC3)cc2)CCN(CC(=O)[O-])CC1.[177Lu+3] (stereo not drawn) [^177Lu-CA028] | – | – | – | – | free activity in human serum ([3]; 37°C, 'at this time point'): 40%; metabolization in vivo (radio-HPLC of extracts) [4]: activity elutes at the retention time of the intact tracer
6 | O=C(O)CCC(NC(=O)NC(CCCCNC(=O)C(Cc1ccc2ccccc2c1)NC(=O)C1CCC(CNC(=O)c2ccc(CN3CCN(CC(=O)O)CCN(CC(=O)O)CCN(CC(=O)O)CC3)cc2)CC1)C(=O)O)C(=O)O (stereo not drawn) [CA028] | 94.12 ± 2.70 %IA/10^6cells | 41.22 ± 2.72 %IA/10^6 cells | 15.2 ± 6.11 nM | – | –
7 | O=C([O-])CN1CCN(CC(=O)[O-])CCN(CC(=O)O)C(Cc2ccc(NC(=S)NCC3CCC(C(=O)NC(Cc4ccc5ccccc5c4)C(=O)NCCCCC(NC(=O)NC(CCC(=O)O)C(=O)O)C(=O)O)CC3)cc2)CN(CC(=O)[O-])CC1.[177Lu+3] (stereo not drawn) [^177Lu-CA030] | – | – | – | no release | stability in human serum ([3]; over 72 h): stable
8 | O=C([O-])CN1CCN(CC(=O)[O-])CCN(Cc2ccc(C(=O)NCCCCC(NC(=O)NC(CCC(=O)O)C(=O)O)C(=O)O)cc2)CCN(CC(=O)[O-])CC1.[68Ga+3] (stereo not drawn) [^68Ga-CA027] | – | – | – | – | plasma half-life t1/2 [5]: 2.7 min
9 | O=C(O)CCC(NC(=O)NC(CCCCNC(=O)c1ccc(CN2CCN(CC(=O)O)CCN(CC(=O)O)CCN(CC(=O)O)CC2)cc1)C(=O)O)C(=O)O (stereo not drawn) [CA027] | 2.18 ± 0.50 %IA/10^6cells | 1.70 ± 0.24 %IA/10^6 cells | 33.8 ± 2.13 nM | – | –
